# The NIST ThermoML archive (doi:10.1016/j.fluid.2005.12.017)
# ± gives the expanded uncertainty stated by the source.
# Legend:
# [1] = Molar enthalpy of transition or fusion; settings: Crystal; DSC
# [2] = for molar volume: 101.33 kPa, Pycnometric method; for Normal melting temperature: DTA
Molar enthalpy of transition or fusion [1] [kcal/mol],"molar volume ([2]; 323.15 K, Crystal) [m3/mol]","molar volume ([2]; 323.15 K, Liquid) [m3/mol]",Normal melting temperature ([2]; Crystal) [°C],"molar volume ([2]; 338.15 K, Crystal) [m3/mol]","molar volume ([2]; 338.15 K, Liquid) [m3/mol]",SMILES
19.6 ± 0.478,0.0009 ± 1e-05,0.00095 ± 1e-05,49.4 ± 0.5,–,–,COC1=C(OC)C(=O)C(C/C=C(\C)CC/C=C(\C)CC/C=C(\C)CC/C=C(\C)CC/C=C(\C)CC/C=C(\C)CC/C=C(\C)CC/C=C(\C)CC/C=C(\C)CCC=C(C)C)=C(C)C1=O [Coenzyme Q10]
28.9 ± 0.478,–,–,64.2 ± 0.5,0.00087 ± 1e-05,0.00093 ± 1e-05,"CCCCCCCCCCCCCCCC(=O)OCC(COC(=O)CCCCCCCCCCCCCCC)OC(=O)CCCCCCCCCCCCCCC [1,2,3-propanetriyl tri(hexadecanoate)]"
